Test results taken from patent publication US9132280B2, “Use of fusarochromanone and its derivatives in the diagnosis and treatment of cancer and other diseases” (University of South Carolina, priority 2008, dated 2015).
“Also recorded” adds a separate entry of the source.

Experiments:
[1] = Experimental Log P, shaken-flask method (n-octanol/water adjusted to pH 10); type: physicochemical
Procedure: The shaken-flask method was also used to determine the experimental non-ionized partition coefficient for FC101. The same procedure used in the experimental determination of Log D for FC101 was used to determine the Log P with the exception that double-distilled water adjusted to pH 10 with 1 mM NaOH was used instead of the phosphate buffer. The log P was calculated using: Log10 P=Log10([FC101uncharged]oct/[FC101uncharged]wat) Imaging of Drug Uptake: […]

[2] = Experimental Log D, shaken-flask method (n-octanol/phosphate buffer); type: physicochemical; settings: pH 7.6
Procedure: The shaken-flask method with n-octanol/phosphate buffer was used to determine the experimental ionized partition coefficient for FC101^10. Briefly, 50 ml each of n-octanol and 0.1 M phosphate buffer (at appropriate pH) were added to a 125 ml flask and placed on a mechanical shaker at room temperature for 24 hours to ensure saturation of each phase. The phases were then separated by centrifugation (Damon IEC HN-SII) at 2000 rpm for 30 min. After separation, aliquots (1 ml) were taken from each phase and were placed in separate vials. A small sample (45.5 μl) of a stock solution of 10 mM FC101 in water was added to the aqueous phase. […] The n-octanol was separated from the phosphate buffer and the absorbance at 385 nm (Shimadzu UV 1601) was then used to determine the concentration of FC101 in each phase. The partition coefficient was calculated using the following equation: Log10 D=([FC101charged+uncharged]oct[FC101charged+uncharged]buf) Experimental Log P for FC101
The shaken-flask method with n-octanol/phosphate buffer was used to determine the experimental ionized partition coefficient for FC101^10. […] The n-octanol was separated from the phosphate buffer and the absorbance at 385 nm (Shimadzu UV 1601) was then used to determine the concentration of FC101 in each phase. […]

[3] = Experimental physicochemical properties of FC101 (pKa, structural counts; Table 1)
B16 melanoma cells [4] = assay: Confocal time-lapse fluorescence imaging of drug uptake (IOD) in B16 melanoma cells; type: cell-based, mouse; settings: 400 nM
Procedure: (§1) Cells growing in the Matra-Tek dishes were maintained in an environmental chamber (37° C. and 5% CO2 atmosphere) mounted on the stage of a Zeiss inverted fluorescence microscope equipped with a CARV spinning disk confocal attachment. B16 cells were imaged using a Zeiss 63× oil NA=1.4 apochromatic objective, which gave an image field of 7265.15 μm^2. Cardiac Fibroblasts were imaged using a Zeiss 40× oil 1.0 NA apochromatic objective, which gave an image field of 18,006.85 μm^2. The images were captured using a CCD camera (Hamamatsu ORCA-ER) controlled by Kinetic Imaging Image Acquisition Software (AQM Advance-6) software. All images were recorded at a constant exposure (385 ms) using a DAPI (360/460) filter set, which isolates the natural fluorescence of the compound.
(§2) The cells were maintained in 1 ml of tissue culture medium and allowed equilibrate in the environmental chamber, before imaging of the selected group of cells was initiated. […] The rate of entry of the drug into the cells was determined by high-speed image collection (1 sec interval, 60 exposures per min). The equilibrium-concentration uptake of the drug was determined by slow-speed time-lapse imaging (10 sec intervals, 6 exposures per min) collected for a minimum of 30 minutes. In all experiments, images were recorded prior to addition of the drug to provide a negative control of any auto-fluorescence present in the cells. […]

[5] = tested on: normal cardiac fibroblasts; assay: Confocal time-lapse fluorescence imaging of drug uptake (IOD) in normal cardiac fibroblasts; type: cell-based, rat; settings: 400 nM
Procedure: as §1, §2
FC101 is a naturally fluorescent molecule and its movements, accumulation and distribution within living cells can be followed and analyzed in real-time or by time-lapse imaging. Cellular uptake of the drug was analyzed using the integrated morphometry subroutine of MetaMorph 6.1 (MDS Analytical Technologies). […] The drug fluorescence in the cytoplasm of the cells was thresholded as a region of interest and the integrated optical density (IOD) of the drug fluorescence was measured for all cells in the field at each time point. Values of image brightness, contrast and gamma function were kept constant for all image measurements of drug fluorescence. […]

B-16 melanoma cells = assay: Cell growth inhibition, MTT assay; type: cell-based, mouse; settings: B-16 melanoma cells compared to normal cardiac fibroblasts
Procedure: Cells were plated in a 96 well format containing 100 μl per well of appropriate media at a density of 2.5×10^4 cells/ml, and incubated at 37° C. with 5% CO2. After a 24 h attachment period, the cells were treated in sextuplicate with 100 μl per well of varying concentrations (0 to 10 μM) of FC101. Final volume in each well was 200 μl. Cell proliferation was then determined by the MTT assay after 48 hr incubation period^8. Briefly, 20 μl of a 5 mg/ml solution of MTT (dissolved in HBS) was added to each well. After 4.5 hr incubation at 37° C., the media were then removed and the insoluble mitochondrial-converted dye was solubilized in 100 μl of DMSO. The plates were placed on a shaker for 30 min to ensure that all of the dye was in solution and then read on a (Spectra Max plus 384, Molecular Devices) microplate reader at […]. The background absorbency at 640 nM was subtracted from the 570 nM value before calculating the GI50.

B16 melanoma cells [6] = assay: Phototoxic effect under blue light exposure during time-lapse imaging, transformed cells; type: cell-based, mouse; settings: transformed cells loaded with FC101
Procedure: as §1, §2

[7] = tested on: normal cardiac fibroblasts; assay: Phototoxic effect under blue light exposure during time-lapse imaging, normal cells; type: cell-based, rat
Procedure: as §1, §2

CC1(C)CC(=O)c2c(ccc(C(=O)CC(N)CO)c2N)O1 (racemic) [FC101, 5-amino-2,2-dimethyl-6-[3′-(R,S)amino-4′-hydroxy-butan-1-one]-2,3-dihydro-4H-1-benzopyran-4-one]
Log10 P [1]: 1.62 | Log10 D7.6 [2]: 0.38 | Hydrogen Bond Acceptors [3]: 6 | Hydrogen Bond Donors [3]: 5 | pKa ([3]; amino group on C-3 of the side chain): 8.6 | Uptake of FC101 (intracellular fluorescence) (B16 melanoma cells [4]; 10 sec after addition): immediately entered the cells | Uptake of FC101 (intracellular fluorescence) (B16 melanoma cells [4]; 20 min after addition): stable with no decrease in intracellular drug fluorescence | Uptake of FC101 (intracellular fluorescence) ([5]; 10 sec after addition (less than a minute)): No incorporation; also recorded: no uptake of FC101 | Uptake of FC101 (intracellular fluorescence) ([5]; 4 min after addition): minimal increase in cytoplasmic fluorescence | Uptake of FC101 (intracellular fluorescence) ([5]; 20 min after addition): significant increase in intracellular fluorescence | Inhibition of cell growth, tumorigenic versus normal cells (B-16 melanoma cells): preferential inhibition of tumorigenic B-16 melanoma cells | Cell death (phototoxic effect) on blue light exposure (B16 melanoma cells [6]): undergo cell death | Cell death (phototoxic effect) on blue light exposure [7]: do not exhibit this effect; also recorded: ineffectiveness
